Assay results as given in patent publication US11964938B2, “3-phenyl-4-hexynoic acid derivatives as GPR40 agonists” (CELON PHARMA S.A., priority 2018, dated 2024).
Structures can show the parent of a compound that is named as a salt.

Key:
[1] = tested on: Wistar HAN Crl:WI (HAN) rats; test: Glucose tolerance test in vivo on rats; parameters: species or system rat; details: 10 mg/kg oral single dose, blood
Procedure: Experiment B3: Glucose Tolerance Test In Vivo on Rats.
To evaluate glucose lowering effect of the compounds in in vivo study, glucose tolerance test (GTT) was performed. The study was performed on male outbred Wistar HAN Crl:WI (HAN) rats from Charles River, weight about 250-300 g, 8-10 weeks old. Rats were starved for 12 hours (with free access to water).
At time point t=0 animals were given orally a single dose of a compound (by a gastric tube) and immediately (t=0) and after 6 hour (t=6 h) intraperitoneal (i.p.) glucose bolus ([…]). At time points t=0 (just before oral administration of the compounds and intraperitoneal glucose administration), 0.25, 0.5, 1, 2, 2.5, 3, 6, 6.25, 7, 8, and 9 h blood samples from tail vein were collected from each animal for glucose level determination using Accu-chek glucometer (Roche Diagnostics) and additionally at t=0.25, 0.5, 1, 2, 2.5, and 3 h blood samples from tail vein were collected for insulin level measurement using ELISA test (Mercodia).
Tested compound were prepared in 5% DMSO/40% PEG300/55% PBS vehicle and administered at the dose of 10 mg/kg body weight in a volume of 0.5 ml/100 g body weight. After 4 hours after tested compound administration animals were given standard diet to the cages. Decrease of AUC value for glucose level in blood was calculated and the results for selected compounds of the invention are presented in Table 5. Analysis was performed using GraphPad prism software.

type 2 diabetes patients = details: cited from earlier work
[2] = tested on: diabetes STZ-treated mice; test: Von Frey test on diabetes STZ-treated mice (tactile allodynia); type: in vivo, mouse; details: 60 minutes after administration, mean of group
Procedure: Experiment B5: Von Frey Test on Diabetes STZ-Treated Mice.
Tactile allodynia was assessed by electronic von Frey apparatus (Bioseb) equipped with a flexible filament. Reaction to stimuli was assessed using growing applied pressure (from 0 to 10 g) on a plantar side of the hind foot of mice. Pregabalin was a control, as reference healthy mice with preserved normal response to the stimuli were used. In the day of the experiment, mice were placed separately in cages with a wire mesh bottom for 1 h for habituation to experimental conditions. After habituation period, each mouse was treated 3 times alternately, with 30 s intervals between each measurement, to obtain starting values (before administration of the compound) of pain sensitivity. […] The results are presented in Table 7 as mean value for all mice in a given group (n=7-10).

Cc1cc(OCCCS(C)(=O)=O)cc(C)c1-c1cccc(COc2ccc3c(c2)OC[C@H]3CC(=O)O)c1 [Example R1, 2[(3S)-6-({3-[4-(3-methanesulfonylpropoxy)-2,6-dimethylphenyl]-phenyl}methoxy)-2,3-dihydro-1-benzofuran-3-yl]acetic acid, reference compound]
AUC for glucose (0-540 min.) ([1]; i.p. glucose bolus at t=0 and 6 h): 30950.6
AUC for insulin (0-180 min.) ([1]; i.p. glucose bolus): 210.5
side effects (type 2 diabetes patients; clinical development, associated with inhibition of bile acids transport): side effects on the liver
glucose levels (type 2 diabetes patients; phase 3 clinical trials, type 2 diabetes patients): ability to reduce glucose levels

CC#C[C@@H](CC(=O)O)c1ccc(OCC(C)=C(C)C)cc1 [Example S1, (3S)-3-{4-[(2,3-dimethylbut-2-en-1-yl)oxy]phenyl}hex-4-ynoic acid calcium salt]
Applied pressure causing the response, sick animal (neuropathic) after compound administration ([2]; 3 mg/kg p.o.): 1.85 g
Applied pressure causing the response, sick animal (neuropathic) after compound administration ([2]; 10 mg/kg p.o.): 2.34 g
Applied pressure causing the response, sick animal (neuropathic) after compound administration ([2]; 30 mg/kg p.o.): 3.36 g
